Measured values reported in PubChem BioAssay (NCI).
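Cells were grown in 96-well plates and exposed to each compound for 48 hours at five concentrations; endpoints were interpolated linearly between bracketing concentrations, or set to the highest concentration if not reached. TGI denotes the concentration required for complete inhibition of growth.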

Columns and labels:
Test in all cases: NCI tumour cell line growth inhibition, 48 h
HOP-18 NSCLC = system: HOP-18 NSCLC
SR leukemia = system: SR leukemia
DMS 273 small cell lung = system: DMS 273 small cell lung
XF 498 CNS = system: XF 498 CNS
DMS 114 small cell lung = system: DMS 114 small cell lung
LXFL 529 NSCLC = system: LXFL 529 NSCLC
SNB-78 CNS = system: SNB-78 CNS
KM20L2 colon = system: KM20L2 colon
DLD-1 colon = system: DLD-1 colon
SNB-19 CNS = system: SNB-19 CNS
M19-MEL melanoma = system: M19-MEL melanoma
RXF-631 renal = system: RXF-631 renal

Row | Structure (SMILES) | TGI (HOP-18 NSCLC) | TGI (SR leukemia) | TGI (DMS 273 small cell lung) | TGI (XF 498 CNS) | TGI (DMS 114 small cell lung) | TGI (LXFL 529 NSCLC) | TGI (SNB-78 CNS) | TGI (KM20L2 colon) | TGI (DLD-1 colon) | TGI (SNB-19 CNS) | TGI (M19-MEL melanoma) | TGI (RXF-631 renal)
1 | N#COc1ccc(Oc2ccccc2)cc1 | > 100 µM | 50 µM | 50.4 µM | > 100 µM | 89.6 µM | > 100 µM | > 100 µM | > 100 µM | > 100 µM | > 100 µM | > 100 µM | –
2 | CCO/S(=N/S(=O)(=O)c1ccccc1)c1ccccc1[N+](=O)[O-] (stereo not drawn) | > 100 µM | > 100 µM | > 100 µM | > 100 µM | > 100 µM | > 100 µM | – | > 100 µM | > 100 µM | > 100 µM | > 100 µM | –
3 | CC(C)(C)C1CCC2c3c([nH]c4ncccc34)C3C(=O)N(c4ccccc4)C(=O)C3C2C1 (stereo not drawn) | > 100 µM | > 100 µM | > 100 µM | > 100 µM | > 100 µM | > 100 µM | > 100 µM | > 100 µM | > 100 µM | > 100 µM | > 100 µM | –
4 | COc1cc2c(oc(=O)c3c4occc4cc(OC)c23)c2cccc(OCc3ccccc3)c12 | > 100 µM | > 100 µM | > 100 µM | > 100 µM | > 100 µM | > 100 µM | > 100 µM | > 100 µM | > 100 µM | > 100 µM | > 100 µM | –
5 | COc1ccc2c3c([nH]c(=O)c2c1C(=O)O)-c1ccccc1CC3 | – | > 100 µM | > 100 µM | > 100 µM | > 100 µM | > 100 µM | > 100 µM | > 100 µM | > 100 µM | > 100 µM | – | > 100 µM
6 | O=c1[nH]c2cc([N+](=O)[O-])ccc2nc1/C(=N/Nc1ccccc1)C(O)c1ccco1 (stereo not drawn) | – | > 100 µM | > 100 µM | > 100 µM | > 100 µM | > 100 µM | – | > 100 µM | > 100 µM | > 100 µM | > 100 µM | > 100 µM
